Assay results published in patent US20230295157A1, “3-(1H-IMIDAZOL-2-YL)-2,3,8,8A-TETRAHYDROINDOLIZIN-5(1H)-ONE DERIVATIVES USEFUL AS FACTOR XIA INHIBITORS” (JANSSEN PHARMACEUTICA NV, priority 2020, published 2023).
Like-named read-outs stand apart in the source and are kept apart here.

Experiments:
human plasma kallikrein = human plasma kallikrein (Homo sapiens (Human), UniProt P03952); assay: Kallikrein inhibition assay (FLINT) utilizing a quenched AMC peptide substrate; format: biochemical; settings: 30 min preincubation, read-out: Kallikrein Kin Inh IC50
In short: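 Fluorogenic Z-Gly-Pro-Arg-AMC cleavage (50 μM substrate, 2 nM kallikrein, Tris pH 7.5, CaCl2, BSA, CHAPS, 2% DMSO) read kinetically at 340/440 nm for 30 min after 30-min compound pre-incubation. Compounds in 11-point 3-fold series from 1 μM; percent inhibition fitted to four-parameter equation for IC50.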

Factor XIa = Factor XIa (Homo sapiens (Human), UniProt P03951); assay: Factor XIa inhibition assay (FLINT) utilizing a fluorophore-quencher pair peptide substrate; format: biochemical; settings: 30 min preincubation, kinetic reads over 30 min, read-out: FXIa Kin Inh IC50
In short: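 FXIa ([…]) preincubated 30 min with compound (11-point 3-fold dilution, top 100 nM, 2% DMSO), then 15 μM quenched FXI Arg146-based peptide added; Tris pH 7.5, CaCl2, BSA, CHAPS. Fluorescence 485/520 nm read kinetically every 5 min over 30 min at RT; IC50 by 4-parameter fit.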

[1] = kinetic reads over 30 min, Z-Gly-Pro-Arg-AMC substrate 50 μM
[2] = 5Fam-[…]-K5Tamra substrate 15 μM
[3] = 5Fam-KLTRAETV-K5Tamra substrate 15 μM

human plasma kallikrein, sequence (P03952 391-638): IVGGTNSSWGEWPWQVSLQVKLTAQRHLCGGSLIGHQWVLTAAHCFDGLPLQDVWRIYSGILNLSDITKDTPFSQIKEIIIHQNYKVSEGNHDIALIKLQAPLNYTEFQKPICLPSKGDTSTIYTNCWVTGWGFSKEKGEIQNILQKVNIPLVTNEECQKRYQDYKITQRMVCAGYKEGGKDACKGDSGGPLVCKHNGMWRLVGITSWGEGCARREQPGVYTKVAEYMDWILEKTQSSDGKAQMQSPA
human plasma kallikrein, sequence (P03952 20-390 partner): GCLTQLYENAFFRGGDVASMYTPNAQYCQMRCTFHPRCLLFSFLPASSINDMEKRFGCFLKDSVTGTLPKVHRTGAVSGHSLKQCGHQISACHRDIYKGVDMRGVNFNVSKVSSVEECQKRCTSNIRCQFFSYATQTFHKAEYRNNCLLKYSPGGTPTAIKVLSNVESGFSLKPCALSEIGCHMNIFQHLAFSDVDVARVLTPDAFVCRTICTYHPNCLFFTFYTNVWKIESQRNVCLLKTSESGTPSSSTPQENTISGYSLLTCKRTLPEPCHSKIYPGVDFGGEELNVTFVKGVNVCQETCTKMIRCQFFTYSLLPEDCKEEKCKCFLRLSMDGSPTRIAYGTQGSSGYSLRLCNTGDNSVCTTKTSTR
Factor XIa, sequence (P03951 388-625): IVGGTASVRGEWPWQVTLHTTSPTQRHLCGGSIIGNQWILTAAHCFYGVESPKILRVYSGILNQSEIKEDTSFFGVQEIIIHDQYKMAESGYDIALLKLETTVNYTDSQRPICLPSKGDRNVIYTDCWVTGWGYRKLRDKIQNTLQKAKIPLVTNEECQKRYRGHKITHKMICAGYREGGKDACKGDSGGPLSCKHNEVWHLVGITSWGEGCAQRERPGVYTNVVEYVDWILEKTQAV
Factor XIa, sequence (P03951 19-387 partner): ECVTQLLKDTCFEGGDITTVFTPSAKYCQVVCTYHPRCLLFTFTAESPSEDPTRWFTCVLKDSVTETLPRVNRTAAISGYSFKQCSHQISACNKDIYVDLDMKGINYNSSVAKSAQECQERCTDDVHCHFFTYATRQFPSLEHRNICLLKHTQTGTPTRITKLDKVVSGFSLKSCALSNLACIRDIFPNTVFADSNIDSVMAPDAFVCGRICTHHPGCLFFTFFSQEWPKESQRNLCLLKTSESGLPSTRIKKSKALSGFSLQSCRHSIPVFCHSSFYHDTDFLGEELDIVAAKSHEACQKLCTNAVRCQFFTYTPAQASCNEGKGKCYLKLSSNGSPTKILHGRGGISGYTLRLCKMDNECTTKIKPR

Compound	IC50 (human plasma kallikrein; [1])	IC50 (Factor XIa; [2])	IC50 (Factor XIa; [3])	IC50 (human plasma kallikrein; μM, kinetic reads)
Cn1c(=O)[nH]c2cc(-c3cnc([C@@H]4CC[C@@H]5CC(c6c(-n7cnnn7)ccc(Cl)c6F)=CC(=O)N54)[nH]3)ccc21 (relative stereo) [Example 303, 5-(24(3S,8aR*)-7-(3-Chloro-2-fluoro-6-(1H-tetrazol-1-yl)phenyl)-5-oxo-1,2,3,5,8,8a-hexahydroindolizin-3-yl)-1H-imidazol-5-yl)-1-methyl-1H-benzo[d]imidazol-2(3H)-one]	0.0044 µM	0.9 nM	–	–
Cn1ncc(NC(=O)C2CC2)c1-c1c[nH]c([C@@H]2CC[C@H]3CC(c4c(-n5cnnn5)ccc(Cl)c4F)=CC(=O)N32)n1 [Example 247, N-[5-[2-[(3S,8aS)-7-[3-Chloro-2-fluoro-6-(tetrazol-1-yl)phenyl]-5-oxo-2,3,8,8a-tetrahydro-1H-indolizin-3-yl]-1H-imidazol-4-yl]-1-methyl-pyrazol-4-yl]cyclopropanecarboxamide]	0.0156 µM	–	0.7 nM	–
Cn1cnc(-c2c[nH]c([C@@H]3CCC4CC(c5c(-n6cnnn6)ccc(Cl)c5F)=CC(=O)N43)n2)n1 (stereo partly drawn) [Example 255, (3S)-7-[3-Chloro-2-fluoro-6-(tetrazol-1-yl)phenyl]-3-[4-(1-methyl-1,2,4-triazol-3-yl)-1H-imidazol-2-yl]-2,3,8,8a-tetrahydro-1H-indolizin-5-one]	–	–	> 100 nM	> 1 µM
CS(=O)(=O)Nc1ccccc1-c1c[nH]c([C@@H]2CCC3CC(c4c(-n5cnnn5)ccc(Cl)c4F)=CC(=O)N32)n1 (stereo partly drawn) [Example 293, N-(2-(2-((3S)-7-(3-Chloro-2-fluoro-6-(1H-tetrazol-1-yl)phenyl)-5-oxo-1,2,3,5,8,8a-hexahydroindolizin-3-yl)-1H-imidazol-4-yl)phenyl)methanesulfonamide]	–	–	79.7 nM	1.2 µM
O=C(O)c1ccc(-c2cnc([C@@H]3CCC4CC(c5c(-n6cc(Cl)nn6)ccc(Cl)c5F)=CC(=O)N43)[nH]2)s1 (stereo partly drawn) [Example 193, 5-(2-((3S)-7-(3-chloro-6-(4-chloro-1H-1,2,3-triazol-1-yl)-2-fluorophenyl)-5-oxo-1,2,3,5,8,8a-hexahydroindolizin-3-yl)-1H-imidazol-4-yl)thiophene-2-carboxylic acid]	0.0143 µM	–	0.4 nM	–
O=C(Nc1cnccc1-c1c[nH]c([C@@H]2CCC3CC(c4c(-n5cnnn5)ccc(Cl)c4F)=CC(=O)N32)n1)C1CC1 (stereo partly drawn) [Example 370, N-(4-(2-((3S)-7-(3-chloro-2-fluoro-6-(1H-tetrazol-1-yl)phenyl)-5-oxo-1,2,3,5,8,8a-hexahydroindolizin-3-yl)-1H-imidazol-4-yl)pyridin-3-yl)cyclopropanecarboxamide]	0.0009 µM	–	0.2 nM	–
O=C1C=C(c2c(-n3cnnn3)ccc(Cl)c2F)C[C@@H]2CC[C@@H](c3ncc(-c4ccnc([C@H](O)C(F)(F)F)c4)[nH]3)N12 (relative stereo) [Example 174, (3S*,8aS*)-7-(3-chloro-2-fluoro-6-(1H-tetrazol-1-yl)phenyl)-3-(5-(2-((S*)-2,2,2-trifluoro-1-hydroxyethyl)pyridin-4-yl)-1H-imidazol-2-yl)-2,3,8,8a-tetrahydroindolizin-5(1H)-one]	0.0259 µM	18.1 nM	–	–
COC(=O)Nc1nccc(-c2[nH]c([C@@H]3CC[C@@H]4CC(c5c(-n6cnnn6)ccc(Cl)c5F)=CC(=O)N43)nc2F)c1F [Example 40, Methyl N-[4-[2-[(3S,8aR)-7-[3-chloro-2-fluoro-6-(tetrazol-1-yl)phenyl]-5-oxo-2,3,8,8a-tetrahydro-1H-indolizin-3-yl]-4-fluoro-1H-imidazol-5-yl]-3-fluoro-2-pyridyl]carbamate]	0.0064 µM	–	0.8 nM	–
NC(=O)c1ccc(-c2cnc([C@@H]3CC[C@@H]4CC(c5c(-n6cc(Cl)nn6)ccc(Cl)c5F)=CC(=O)N43)[nH]2)s1 [Example 207, 5-(2-((3S,8aR)-7-(3-Chloro-6-(4-chloro-1H-1,2,3-triazol-1-yl)-2-fluorophenyl)-5-oxo-1,2,3,5,8,8a-hexahydroindolizin-3-yl)-1H-imidazol-5-yl)thiophene-2-carboxamide]	0.0077 µM	–	2.5 nM	–
C[C@H](CO)Oc1nccc(-c2cnc([C@@H]3CC[C@@H]4CC(c5c(-n6cnnn6)ccc(Cl)c5F)=CC(=O)N43)[nH]2)c1F (single isomer, unassigned) [Example 168, (3S,8a*R)-7-(3-chloro-2-fluoro-6-(1H-tetrazol-1-yl)phenyl)-3-(5-(3-fluoro-2-(((R)-1-hydroxypropan-2-yl)oxy)pyridin-4-yl)-1H-imidazol-2-yl)-2,3,8,8a-tetrahydroindolizin-5(1H)-one]	0.0049 µM	–	0.8 nM	–
NC(=O)c1ccc(-c2nc([C@@H]3CC[C@@H]4CC(c5c(-n6cnnn6)ccc(Cl)c5F)=CC(=O)N43)[nH]c2Cl)s1 [Example 211, 5-(5-Chloro-2-((3S,8aR)-7-(3-chloro-2-fluoro-6-(1H-tetrazol-1-yl)phenyl)-5-oxo-1,2,3,5,8,8a-hexahydroindolizin-3-yl)-1H-imidazol-4-yl)thiophene-2-carboxamide]	0.0008 µM	0.2 nM	–	–
CC(C)(O)CCc1nccc(-c2cnc([C@@H]3CC[C@H]4CC(c5c(-n6cnnn6)ccc(Cl)c5F)=CC(=O)N43)[nH]2)c1F (single isomer, unassigned) [Example 159, (3*S,8a*S)-7-(3-chloro-2-fluoro-6-(1H-tetrazol-1-yl)phenyl)-3-(5-(3-fluoro-2-(3-hydroxy-3-methylbutyl)pyridin-4-yl)-1H-imidazol-2-yl)-2,3,8,8a-tetrahydroindolizin-5(1H)-one]	0.0222 µM	–	5.4 nM	–

Now from value to compound:

IC50 (human plasma kallikrein; [1])	IC50 (Factor XIa; [2])	IC50 (Factor XIa; [3])	IC50 (human plasma kallikrein; μM, kinetic reads)	Compound
0.0011 µM	–	1.5 nM	–	O=C1C=C(c2c(-n3cnnn3)ccc(Cl)c2F)C[C@H]2CC[C@@H](c3ncc(-c4ccc5[nH]c(=O)[nH]c5c4)[nH]3)N12 (single isomer, unassigned) [Example 286]
0.0426 µM	5.7 nM	–	–	[2H][C@]12CC[C@@H](c3ncc(-c4ccnc(CO)c4F)[nH]3)N1C(=O)C=C(c1c(-n3cnnn3)ccc(Cl)c1F)C2 (relative stereo) [Example 47, (3S,8aR*)-7-(3-Chloro-2-fluoro-6-(1H-tetrazol-1-yl)phenyl)-3-(5-(3-fluoro-2-(hydroxymethyl)pyridin-4-yl)-1H-imidazol-2-yl)-2,3,8,8a-tetrahydroindolizin-5(1H)-one-8a-d]
0.0227 µM	5.7 nM	–	–	CC1(C)C[C@@H](c2ncc(-c3ccc(N)nc3Cl)[nH]2)N2C(=O)C=C(c3c(-n4cnnn4)ccc(Cl)c3F)C[C@@H]21 (relative stereo) [Example 335, (3S,8aR)-3-(5-(6-Amino-2-chloropyridin-3-yl)-1H-imidazol-2-yl)-7-(3-chloro-2-fluoro-6-(1H-tetrazol-1-yl)phenyl)-1,1-dimethyl-2,3,8,8a-tetrahydroindolizin-5(1H)-one]
0.0076 µM	–	0.5 nM	–	[2H]c1nc([C@@H]2CC[C@@H]3CC(c4c(-n5cnnn5)ccc(Cl)c4F)=CC(=O)N32)[nH]c1-c1c(F)nc(N)c([2H])c1[2H] [Example 149, (3S,8aR)-3-[5-(6-amino-4,5-dideuterio-2-fluoro-3-pyridyl)-4-deuterio-1H-imidazol-2-yl]-7-[3-chloro-2-fluoro-6-(tetrazol-1-yl)phenyl]-2,3,8,8a-tetrahydro-1H-indolizin-5-one]
0.0126 µM	–	1.8 nM	–	O=C1C=C(c2c(-n3cnnn3)ccc(Cl)c2F)C[C@H]2CC[C@@H](c3ncc(-c4ccnc(CO)c4F)[nH]3)N12 [Example 222, (3S,8aR)-7-(3-Chloro-2-fluoro-6-(1H-tetrazol-1-yl)phenyl)-3-(5-(3-fluoro-2-(hydroxymethyl)pyridin-4-yl)-1H-imidazol-2-yl)-2,3,8,8a-tetrahydroindolizin-5(1H)-one]
0.209 µM	–	7.3 nM	–	Nc1ccc(-c2cnc([C@@H]3CC[C@@H]4CC(c5cc(Cl)ccc5-n5cnnn5)CC(=O)N43)[nH]2)c(F)n1 (stereo partly drawn) [Example 376, (3S,8aR)-3-(5-(6-amino-2-fluoropyridin-3-yl)-1H-imidazol-2-yl)-7-(5-chloro-2-(1H-tetrazol-1-yl)phenyl)hexahydroindolizin-5(1H)-one]
0.0007 µM	–	0.3 nM	–	O=C1C=C(c2c(-n3cnnn3)ccc(Cl)c2F)C[C@@H]2CC[C@@H](c3ncc(-c4ccc5[nH]c(=O)[nH]c5c4)[nH]3)N12 [Example 292, 5-(2-((3S,8aS)-7-(3-Chloro-2-fluoro-6-(1H-tetrazol-1-yl)phenyl)-5-oxo-1,2,3,5,8,8a-hexahydroindolizin-3-yl)-1H-imidazol-5-yl)-1,3-dihydro-2H-benzo[d]imidazol-2-one]
0.115 µM	–	14.5 nM	–	O=C1C[C@H](c2c(-n3cnnn3)ccc(Cl)c2F)C[C@H]2CC[C@@H](c3ncc(-c4ccnc(CO)c4F)[nH]3)N12 [Example 378, (3S,7R,8aR)-7-(3-chloro-2-fluoro-6-(1H-tetrazol-1-yl)phenyl)-3-(5-(3-fluoro-2-(hydroxymethyl)pyridin-4-yl)-1H-imidazol-2-yl)hexahydroindolizin-5(1H)-one]
0.125 µM	–	62.9 nM	–	O=C1CCCN1c1nccc(-c2cnc([C@@H]3CC[C@H]4CC(c5c(-n6cnnn6)ccc(Cl)c5F)=CC(=O)N43)[nH]2)c1F [Example 105, (3S,8aS)-7-(3-chloro-2-fluoro-6-(1H-tetrazol-1-yl)phenyl)-3-(5-(3-fluoro-2-(2-oxopyrrolidin-1-yl)pyridin-4-yl)-1H-imidazol-2-yl)-2,3,8,8a-tetrahydroindolizin-5(1H)-one]
